Data: patent US9102674B2, “Substituted naphthyridine and quinoline compounds as MAO inhibitors” (DART NEUROSCIENCE (CAYMAN) LTD., priority 2013, dated 2015)

These compounds were tested against T1, Human recombinant MAO-B (Homo sapiens, UniProt P27338) (assay: MAO-B enzymatic assay (fluorometric, kynuramine)). Details: human recombinant MAO-B expressed in insect cells; kynuramine substrate; values given as bins; read-out: MAO-B (pEC50) (converted).
T1 construct: host or cells: insect cells
T1 sequence (P27338 1-520): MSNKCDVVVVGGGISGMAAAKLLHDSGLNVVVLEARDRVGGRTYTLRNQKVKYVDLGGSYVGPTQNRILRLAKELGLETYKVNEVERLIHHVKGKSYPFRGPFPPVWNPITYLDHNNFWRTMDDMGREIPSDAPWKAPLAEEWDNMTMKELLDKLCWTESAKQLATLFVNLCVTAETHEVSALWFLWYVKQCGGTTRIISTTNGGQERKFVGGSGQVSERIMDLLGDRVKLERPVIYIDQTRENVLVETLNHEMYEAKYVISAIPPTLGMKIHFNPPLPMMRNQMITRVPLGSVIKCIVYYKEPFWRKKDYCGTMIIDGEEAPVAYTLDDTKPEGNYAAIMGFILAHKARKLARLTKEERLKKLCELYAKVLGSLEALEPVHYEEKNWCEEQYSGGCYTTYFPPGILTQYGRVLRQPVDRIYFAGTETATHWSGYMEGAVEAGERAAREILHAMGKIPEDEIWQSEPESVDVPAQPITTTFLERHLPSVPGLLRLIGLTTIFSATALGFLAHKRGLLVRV
Assay type: biochemical
Experimental: The MAO enzymatic assay was performed according to the fluorometric method described by Matsumoto and colleagues (Matsumoto et al., Clin. Biochem. 1985, 18, 126-129) with the following modifications. Human recombinant MAO-A and MAO-B expressed in insect cells were used. For both assays, test compound and/or vehicle were preincubated with purified enzyme in phosphate buffer pH 7.4 for 15 minutes at 37° C. The reaction was initiated by addition of […] kynuramine. Following a 60 minute incubation period, the reaction was terminated by the addition of 6 N NaOH. The amount of 4-hydroxyquinoline that formed was determined by spectrofluorimetrically at 325 nm/465 nm.
Results were converted to percent inhibition, and the EC50 (M) for each reaction was determined using the XLfit program from IDBS (ID Business Solutions Ltd., 2 Occam Court, Surrey Research Park, Guildford, Surrey, GU2 7QB UK). The EC50 represents the concentration of a compound where 50% of its maximal effect is observed. The pEC50 is defined as the negative logarithm of the EC50; a higher pEC50 value therefore corresponds to higher potency in the assay.
Representative compounds of the invention were evaluated in the MAO-B enzymatic assay. Typically, the compounds of the invention show MAO-B inhibitory properties at a concentration of 0.1 to 10 μM, typically at 5-100%.
As depicted in the following Table, these inhibitory properties were mirrored by pEC50 values ranging from 5 (meaning 10^−5 M or 10 μM) to greater than 7 (meaning less than 10^−7 M or 0.1 μM).

| Structure (SMILES) | EC50 |
| --- | --- |
| NC(=O)CC1Cc2ccc(OCc3cccc(Cl)c3)cc2NC1=O (stereo not drawn) [Example 82, 2-(7-((3-Chlorobenzyl)oxy)-2-oxo-1,2,3,4-tetrahydroquinolin-3-yl)acetamide] | < 100 nM |
| Cc1nc2cc(OCc3cccc(F)c3)ccc2cc1C(C)(C)O [Example 34, 2-(7-((3-Fluorobenzyl)oxy)-2-methylquinolin-3-yl)propan-2-ol] | < 100 nM |
| CC(C)(O)c1cnc2cc(OCc3cc(F)c(F)c(F)c3)ccc2c1 [Example 30, 2-(7-((3,4,5-Trifluorobenzyl)oxy)quinolin-3-yl)propan-2-ol] | < 100 nM |
| NC(=O)Cc1cnc2cc(OCc3cccc(C(F)(F)F)n3)cnc2c1 [Example 81, 2-(7-((6-(Trifluoromethyl)pyridin-2-yl)methoxy)-1,5-naphthyridin-3-yl)acetamide] | 100 to 1000 nM |
| CC(C)(O)c1cnc2cc(OCc3cccc(Cl)c3)cnc2c1 [Example 79, 2-{7-[(3-Chlorophenyl)methoxy]-1,5-naphthyridin-3-yl}propan-2-ol] | < 100 nM |
| N#CCc1cnc2cc(OCc3ccc(F)c(F)c3)cnc2c1 [Example 74, 2-{7-[(3,4-Difluorophenyl)methoxy]-1,5-naphthyridin-3-yl}acetonitrile] | < 100 nM |
| OCc1cnc2cc(OCc3cccc(Cl)c3)ccc2c1 [Example 35, (7-((3-Chlorobenzyl)oxy)quinolin-3-yl)methanol] | < 100 nM |
| NC(=O)c1cnc2cc(OCc3ccc(F)c(Cl)c3)cnc2c1 [Example 71, 7-[(3-Chloro-4-fluorophenyl)methoxy]-1,5-naphthyridine-3-carboxamide] | < 100 nM |
| OCc1cnc2cc(OCc3ccc(F)c(F)c3)cnc2c1 [Example 73, (7-((3,4-Difluorobenzyl)oxy)-1,5-naphthyridin-3-yl)methanol] | < 100 nM |
| NC(=O)Cc1cc2ccc(OCc3cccc(Cl)c3)cc2[nH]c1=O [Example 83, 2-(7-((3-Chlorobenzyl)oxy)-2-oxo-1,2-dihydroquinolin-3-yl)acetamide] | < 100 nM |
| Cc1nc2cc(OCc3ccc(F)cc3)ccc2cc1C(C)(C)O [Example 31, 2-(7-((4-Fluorobenzyl)oxy)-2-methylquinolin-3-yl)propan-2-ol] | < 100 nM |
| CCOC(=O)C(C)(C)c1cnc2cc(OCc3cccc(Cl)c3)ccc2c1 [Example 59, Ethyl 2-(7-((3-chlorobenzyl)oxy)quinolin-3-yl)-2-methylpropanoate] | 100 to 1000 nM |
| CC(C)(O)c1cnc2cc(OCc3ccc(F)c(Cl)c3)cnc2c1 [Example 78, 2-{7-[(3-Chloro-4-fluorophenyl)methoxy]-1,5-naphthyridin-3-yl}propan-2-ol] | < 100 nM |
| CCOC(=O)c1cnc2cc(OCc3cccc(C(F)(F)F)c3)ccc2c1 [Example 5, Ethyl 7-((3-(trifluoromethyl)benzyl)oxy)quinoline-3-carboxylate] | < 100 nM |
| CC(C)(O)c1cnc2cc(OCc3cccc(F)c3)cnc2c1 [Example 76, 2-{7-[(3-Fluorophenyl)methoxy]-1,5-naphthyridin-3-yl}propan-2-ol] | < 100 nM |
| CCOC(=O)c1cnc2cc(OCc3ccc(C(F)(F)F)cc3)ccc2c1 [Example 6, Ethyl 7-((4-(trifluoromethyl)benzyl)oxy)quinoline-3-carboxylate] | 100 to 1000 nM |
| NCCNC(=O)c1cnc2cc(OCc3cccc(Cl)c3)ccc2c1 [Example 47, N-(2-Aminoethyl)-7-((3-chlorobenzyl)oxy)quinoline-3-carboxamide] | < 100 nM |
| CNCCNC(=O)c1cnc2cc(OCc3cccc(Cl)c3)ccc2c1 [Example 48, 7-((3-Chlorobenzyl)oxy)-N-(2-(methylamino)ethyl)quinoline-3-carboxamide] | 100 to 1000 nM |
| CCOC(=O)c1cnc2cc(OCc3ccc(F)c(C(F)(F)F)c3)ccc2c1 [Example 12, Ethyl 7-((4-fluoro-3-(trifluoromethyl)benzyl)oxy)quinoline-3-carboxylate] | < 100 nM |
| CCOC(=O)c1cnc2cc(OCc3ccc(F)c(F)c3)ccc2c1 [Example 14, Ethyl 7-((3,4-difluorobenzyl)oxy)quinoline-3-carboxylate] | < 100 nM |

| Structure (SMILES) | EC50 |
| --- | --- |
| CC(C)(O)c1cnc2cc(OCc3ccc(F)cc3)ccc2c1 [Example 27, 2-(7-((4-Fluorobenzyl)oxy)quinolin-3-yl)propan-2-ol] | < 100 nM |
| CCOC(=O)c1cnc2cc(OCc3cccc(Cl)c3)ccc2c1 [Example 3, Ethyl 7-[(3-chlorophenyl)methoxy]quinoline-3-carboxylate] | < 100 nM |
| CC(C)(O)c1cnc2cc(OCc3cccc(Cl)c3)ccc2c1 [Example 28, 2-(7-((3-Chlorobenzyl)oxy)quinolin-3-yl)propan-2-ol] | < 100 nM |
| NC(=O)Cc1cnc2cc(OCc3cccc(F)c3)ccc2c1 [Example 57, 2-(7-((3-Fluorobenzyl)oxy)quinolin-3-yl)acetamide] | < 100 nM |
| NC(=O)c1cnc2cc(OCc3cccc(Cl)c3)ccc2c1 [Example 64, 7-((3-Chlorobenzyl)oxy)quinoline-3-carboxamide] | < 100 nM |
| CCOC(=O)c1cnc2cc(OCc3cccc(F)c3)ccc2c1 [Example 4, Ethyl 7-[(3-fluorophenyl)methoxy]quinoline-3-carboxylate] | < 100 nM |
| CC(C)(O)Cc1cnc2cc(OCc3cccc(Cl)c3)ccc2c1 [Example 63, 1-(7-((3-Chlorobenzyl)oxy)quinolin-3-yl)-2-methylpropan-2-ol] | 1000 to 10000 nM |
| CCOC(=O)c1cnc2cc(OCc3cc(F)cc(Cl)c3)ccc2c1 [Example 19, Ethyl 7-((3-chloro-5-fluorobenzyl)oxy)quinoline-3-carboxylate] | < 100 nM |
| CC(C)(C(N)=O)c1cnc2cc(OCc3cccc(Cl)c3)ccc2c1 [Example 61, 2-(7-((3-Chlorobenzyl)oxy)quinolin-3-yl)-2-methylpropanamide] | < 100 nM |
| NC(=O)Cc1cnc2cc(OCc3ccnc(C(F)(F)F)c3)ccc2c1 [Example 62, 2-(7-((2-(Trifluoromethyl)pyridin-4-yl)methoxy)quinolin-3-yl)acetamide] | < 100 nM |
| CC(C)(O)c1cnc2cc(OCCc3cccc(F)c3)ccc2c1 [Example 38, 2-(7-(3-Fluorophenethoxy)quinolin-3-yl)propan-2-ol] | 100 to 1000 nM |
| CCOC(=O)c1cnc2cc(OCc3cccc(OC)c3)ccc2c1 [Example 9, Ethyl 7-((3-methoxybenzyl)oxy)quinoline-3-carboxylate] | < 100 nM |
| CNC(=O)c1cnc2cc(OCc3cccc(Cl)c3)cnc2c1 [Example 72, 7-[(3-Chlorophenyl)methoxy]-N-methyl-1,5-naphthyridine-3-carboxamide] | < 100 nM |
| OCc1cnc2cc(OCc3cc(F)c(F)c(F)c3)ccc2c1 [Example 37, (7-((3,4,5-Trifluorobenzyl)oxy)quinolin-3-yl)methanol] | < 100 nM |
| CCOC(=O)c1cnc2cc(OCc3cccc([N+](=O)[O-])c3)ccc2c1 [Example 18, Ethyl 7-((3-nitrobenzyl)oxy)quinoline-3-carboxylate] | < 100 nM |
| COC(=O)Cc1cnc2cc(OCc3cccc(Cl)c3)ccc2c1 [Example 54, Methyl 2-(7-((3-chlorobenzyl)oxy)quinolin-3-yl)acetate] | < 100 nM |
| COC(=O)c1cnc2cc(OCc3cccc(Cl)c3)ccc2c1 [Example 26, Methyl 7-((3-chlorobenzyl)oxy)quinoline-3-carboxylate] | < 100 nM |
| CCOC(=O)c1cnc2cc(OCc3ccc(C)cc3)ccc2c1 [Example 8, Ethyl 7-((4-methylbenzyl)oxy)quinoline-3-carboxylate] | 100 to 1000 nM |
| CC(C)(F)c1cnc2cc(OCc3ccc(F)cc3)ccc2c1 [Example 41, 7-((4-Fluorobenzyl)oxy)-3-(2-fluoropropan-2-yl)quinoline] | < 100 nM |
